Key:
Assay type in all cases: in vivo
[1] = system: barnyardgrass (Echinochloa crus-galli); assay: Test A greenhouse herbicide test, pre- and postemergence
In short: (§1)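 Seeds sown in loam–sand blend got a preemergence directed soil spray of compound in non-phytotoxic solvent with surfactant. Postemergence treatment was given at 2–10 cm, one- to two-leaf stage. After ~10 d in greenhouse, injury was rated visually vs untreated controls, 0 (no effect) to 100 (complete control).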

corn (Zea mays) = assay: as above; conditions: Postemergence
In short: as §1

[2] = system: foxtail, giant (giant foxtail, Setaria faberii); assay: as above
In short: as §1

kochia (Kochia scoparia) = assay: as above
In short: as §1

[3] = system: pigweed (Amaranthus retroflexus); assay: as above
In short: as §1

[4] = system: ragweed (common ragweed, Ambrosia elatior); assay: as above
In short: as §1

[5] = system: ryegrass, Italian (Italian ryegrass, Lolium multiflorum); assay: as above
In short: as §1

[6] = system: wheat (Triticum aestivum); assay: as above; conditions: Postemergence
In short: as §1

[7] = system: blackgrass (Alopecurus myosuroides); assay: Test A greenhouse herbicide test, postemergence
In short: (§2)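 Greenhouse postemergence test: formulated chemicals sprayed on one- to two-leaf plants (2 to 10 cm), grown in loam soil blended with sand. Injury assessed visually about 10 d later against untreated controls, scored 0 (no effect) to 100 (complete control).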

[8] = system: galium (catchweed bedstraw, Galium aparine); assay: Test A greenhouse herbicide test, postemergence
In short: as §2

[9] = system: barnyardgrass (Echinochloa crus-galli); assay: Test B flooded paddy test; conditions: 250 g ai/ha, Flood; visual rating on scale of 0 to 100 where 0 is no effect and 100 is complete control; 13 to 15 d after treatment
In short: (§3)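 Plants at the 2-leaf stage were flooded to 3 cm above soil, and test compounds were applied directly into the paddy water, which was held at that depth throughout. After 13 to 15 d in a greenhouse, injury was rated visually against untreated controls on a 0–100 scale (0 no effect, 100 complete control).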

[10] = system: ducksalad (Heteranthera limosa); assay: Test B flooded paddy test; conditions: 250 g ai/ha, Flood; visual rating on scale of 0 to 100 where 0 is no effect and 100 is complete control; 13 to 15 d after treatment
In short: as §3

rice (Oryza sativa) = assay: Test B flooded paddy test; conditions: 250 g ai/ha, Flood; visual rating on scale of 0 to 100 where 0 is no effect and 100 is complete control; 13 to 15 d after treatment
In short: as §3

[11] = system: sedge, umbrella (small-flower umbrella sedge, Cyperus difformis); assay: Test B flooded paddy test; conditions: 250 g ai/ha, Flood; visual rating on scale of 0 to 100 where 0 is no effect and 100 is complete control; 13 to 15 d after treatment
In short: as §3

[12] = Postemergence, 125 g ai/ha, 0 to 100 scale where 0 is no effect and 100 is complete control
[13] = Postemergence, 500 g ai/ha, 0 to 100 scale, 0 is no effect, 100 is complete control
[14] = Preemergence, 125 g ai/ha, 0 to 100 scale where 0 is no effect and 100 is complete control
[15] = Preemergence, 500 g ai/ha, 0 to 100 scale, 0 no effect, 100 complete control
[16] = 125 g ai/ha, 0 to 100 scale where 0 is no effect and 100 is complete control
[17] = 500 g ai/ha, 0 to 100 scale, 0 is no effect, 100 is complete control
[18] = Postemergence, 125 g ai/ha, 0 to 100 scale, 0 no effect, 100 complete control
[19] = Postemergence, 500 g ai/ha, visual rating after approx. 10 d, 0 to 100 scale (0 no effect, 100 complete control)
[20] = Preemergence, 125 g ai/ha, visual injury rating, 0 to 100 scale (0 no effect, 100 complete control), approx. 10 d
[21] = Preemergence, 500 g ai/ha, 0 to 100 scale where 0 is no effect and 100 is complete control
[22] = 125 g ai/ha, 0 to 100 scale, 0 no effect, 100 complete control
[23] = 500 g ai/ha, visual rating after approx. 10 d, 0 to 100 scale (0 no effect, 100 complete control)

CCC(=O)Oc1c(C)nn(C)c(=O)c1-c1ccc(Cl)c2ccccc12 [Compound 62]
100: Plant response rating, Kochia (kochia (Kochia scoparia); [12]) | Kochia plant response rating (kochia (Kochia scoparia); [13]) | Plant response rating, Pigweed [3, 12] | Pigweed plant response rating [3, 13] | Pigweed plant response rating [3, 14] | Plant response rating, Pigweed [3, 15] | Plant response rating, Ragweed [4, 12] | Ragweed plant response rating [4, 13] | Plant response rating, Ryegrass, Italian [5, 12] | Ryegrass, Italian plant response rating [5, 13] | Ryegrass, Italian plant response rating [5, 14] | Plant response rating, Ryegrass, Italian [5, 15] | Plant response rating, Galium [8, 16] | Galium plant response rating [8, 17]
20: Plant response rating, Barnyardgrass [9] | Plant response rating, Ducksalad [10]
10: Plant response rating, Corn (corn (Zea mays); [16])
90: Barnyardgrass plant response rating [1, 13] | Plant response rating, Barnyardgrass [1, 15] | Foxtail, Giant plant response rating [2, 13] | Plant response rating, Foxtail, Giant [2, 15] | Kochia plant response rating (kochia (Kochia scoparia); [14]) | Plant response rating, Kochia (kochia (Kochia scoparia); [15]) | Plant response rating, Ragweed [4, 15]
50: Barnyardgrass plant response rating [1, 14] | Foxtail, Giant plant response rating [2, 14] | Wheat plant response rating [6, 17]
75: Plant response rating, Sedge, Umbrella [11]
0: Plant response rating, Wheat [6, 16] | Plant response rating, Rice (rice (Oryza sativa))
30: Corn plant response rating (corn (Zea mays); [17])
80: Plant response rating, Foxtail, Giant [2, 12] | Blackgrass plant response rating [7, 17]
70: Plant response rating, Barnyardgrass [1, 12] | Ragweed plant response rating [4, 14] | Plant response rating, Blackgrass [7, 16]

Cc1nn(C)c(=O)c(-c2ccc(Cl)c3ccccc23)c1OS(=O)(=O)C(F)(F)F [Compound 158]
0: Plant response rating, Corn (corn (Zea mays); [22]) | Plant response rating, Corn (corn (Zea mays); [23]) | Plant response rating, Wheat [6, 22] | Plant response rating, Wheat [6, 23] | Plant response rating, Barnyardgrass [9] | Plant response rating, Ducksalad [10]
30: Plant response rating, Foxtail, Giant [2, 18] | Plant response rating, Kochia (kochia (Kochia scoparia); [20])
100: Plant response rating, Kochia (kochia (Kochia scoparia); [19]) | Plant response rating, Pigweed [3, 19] | Plant response rating, Pigweed [3, 21] | Plant response rating, Ragweed [4, 19] | Plant response rating, Ryegrass, Italian [5, 19]
60: Plant response rating, Barnyardgrass [1, 21] | Plant response rating, Foxtail, Giant [2, 19] | Plant response rating, Blackgrass [7, 23]
90: Plant response rating, Kochia (kochia (Kochia scoparia); [18]) | Plant response rating, Ragweed [4, 18] | Plant response rating, Ryegrass, Italian [5, 18] | Plant response rating, Galium [8, 23]
40: Plant response rating, Foxtail, Giant [2, 21] | Plant response rating, Kochia (kochia (Kochia scoparia); [21])
65: Plant response rating, Sedge, Umbrella [11]
10: Plant response rating, Barnyardgrass [1, 18] | Plant response rating, Barnyardgrass [1, 20] | Plant response rating, Foxtail, Giant [2, 20] | Plant response rating, Pigweed [3, 20]
80: Plant response rating, Pigweed [3, 18] | Plant response rating, Ragweed [4, 21] | Plant response rating, Ryegrass, Italian [5, 20] | Plant response rating, Ryegrass, Italian [5, 21] | Plant response rating, Galium [8, 22]
50: Plant response rating, Barnyardgrass [1, 19] | Plant response rating, Ragweed [4, 20] | Plant response rating, Blackgrass [7, 22]
20: Plant response rating, Rice (rice (Oryza sativa))

Source: patent US10597388B2, “Pyridazinone herbicides” (FMC CORPORATION, priority 2014, dated 2020)
